From patent US20240301409A1, “Chemically Modified Small Activating RNA” (RACTIGEN THERAPEUTICS, priority 2021, published 2024)
Entries after “also recorded” stand apart in the source; their conditions may differ. Like-named read-outs stand apart in the source and are kept apart here. Oligonucleotides are written 5' to 3', each unit as a sugar letter and its base; * is a phosphorothioate linkage, no mark a phosphodiester; rarer units and linkages stand in square brackets, end groups in braces. Plain capitals give the bases only. d = 2'-deoxy (DNA); m = 2'-O-methyl; r = 2'-OH (RNA); f = 2'-fluoro

What was measured:
[1] = tested on: Rag1-40 target sequence in the 3′ UTR of firefly luciferase, COS-1 cells
Protocol: (§13) A 26 bp fragment comprising the target site of Rag1-40 was cloned in the antisense orientation into the 3′ UTR region of the firefly luciferase gene in a pmirGLO dual luciferase vector. Vector plasmids were co-transfected with the indicated saRNAs into COS-1 cells. Cells were lysed 48 hours after transfection, and the resulting lysates were assessed for luciferase activity. Data represent mean±SD of at least two independent experiments. Dashed line represents comparisons to blank control (top dashed line) and Rag1-40 (bottom dashed line). Values close to the top dashed line indicate no off-target effect.
(§14) A 26 bp fragment comprising the Rag1-40 target sequence was cloned in the antisense orientation into a multiple cloning site (MCS) of the 3′ untranslated region of firefly luciferase of the pmirGLO dual luciferase vector (Promega, Fitchburg, WI), to obtain pOff-Target plasmid. Following E. coli transformation and overnight incubation, plasmids for each construct were prepared by standard method. Each plasmid was transfected into COS-1 monkey kidney epithelial cells using Lipofectamine 3000 (Invitrogen, Carlsbad, CA). Subsequently, saRNA was transfected using RNAiMAX. After 24 hours of incubation, COS-1 cells were lysed with 1× lysis buffer, and luciferase activity was measured using dual luciferase reporter gene assay system (Promega, WI, USA) following manufacturer's instructions.
(§15) To assess the off-target effects of unmodified and modified saRNAs, a sequence complementary to the sense oligonucleotide strand of Rag1-40 was cloned into the 3′UTR region of the luciferase gene in a pmirGLO dual luciferase vector. The vector plasmid was co-transfected with the saRNA into COS-1 cells. Cells were lysed 48 hours after transfection and the resulting lysates were assessed for luciferase activity.

[2] = tested on: Ku-7-LG cells; experiment: Cellular proliferation assay (CCK8) in Ku-7-LG cells; type: cell-based, human; conditions: 10 nM, 72 hours
Protocol: Ku-7-LG cells were transfected with the indicated saRNA at 10 nM for 3 days. […] The closer the luciferase value is to the control group, the lower the probability of off-target effects of saRNA is. Control and dsCon2 were blank transfection and double-stranded scramble RNA transfection, respectively. The value of the ordinate represents the mean±SD of two repeated treatments.
(§1) After the transfection, the number of viable cells was detected with a CCK8 kit, and plotted as the percentage of the blank control treatment group. […] A transfection sample without oligonucleotide served as a blank control. Non-specific duplex (dsCon) transfected sample served as a negative control. Data are presented as mean±SD of at least two independent experiments. The values below the dashed line indicate stronger growth inhibitory activity compared to duplex Rag1-40 without chemical modification.
(§2) Human bladder cancer cells Ku-7-LG (ATCC), J82 (ATCC) and T24 (ATCC) were cultured in McCoy medium (Gibco) comprising 10% calf serum (Sigma-Aldrich) and 1% penicillin/Streptomycin (Gibco). Cells were cultured at 37° C. under 5% CO2. Ku-7-LG, J82 and T24 cells were plated into 12-well plates at 10×10^4 cells per well, transfected with the small RNA at a concentration of 10 nM (unless otherwise specified) for three days, using RNAiMax (Invitrogen, Carlsbad, CA) according to the manufacturer's instructions. Two replicate wells were set for each treatment.
(§3) Cells were plated in a 96-well plate at 2˜4×10^3 cells/well, cultured overnight, and transfected with the oligonucleotide duplexes. Three days after transfection, CCK8 (Dojindo) was used to detect cellular proliferation following manufacturer's instructions. The experimental steps are briefly described as follows: 10 μL of CCK8 solution was added to each well, incubated at 37° C. for 1 hour, and then the absorbance at 450 nm was measured using a microplate reader.
(§4) It is known that p21 induction by saRNA is that a variety of tumor suppressor factors such as p21 protein suppress the proliferation of cancer cells. To evaluate the effect of chemically modified saRNAs on the function of cancer cells, cells (Ku-7-LG and T24) were transfected with 10 nM unmodified and modified saRNAs for 72 hours, and the cellular proliferation was determined by CCK8. […] Furthermore, there was a correlation between RNA activating activity (FIGS. 7A-7B) and suppression of cellular proliferation activity (FIGS. 8A-8B). Strong p21 activators are usually also strong cytostatics.

[3] = target: T1, RNase A (Bos taurus, UniProt P61823)
T1 sequence (P61823 27-150): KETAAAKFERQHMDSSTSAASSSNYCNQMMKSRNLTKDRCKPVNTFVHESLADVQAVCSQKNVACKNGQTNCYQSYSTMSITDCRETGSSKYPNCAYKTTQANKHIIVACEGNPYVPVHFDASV

[4] = tested on: p21 gene; experiment: p21 mRNA expression by RT-qPCR in T24 cells; type: cell-based, human; conditions: 10 nM, 72 hours, compared with unmodified Rag1-40 unless worded otherwise
Protocol: (§5) Ku-7-LG and T24 cells were transfected with the indicated saRNA at a final concentration of 10 nM for 3 days. After transfection, the RNA was extracted with the Qiagen RNeasy kit. After reverse transcription, the ABI 7500 fast real-time PCR system was used for qPCR amplification. The GAPDH gene was amplified as an internal reference. […] Dashed line indicates duplex Rag1-40 with no chemical modification in comparison, and the values above the line indicate stronger activity. The control was blank transfection without oligonucleotide. dsCon2 is transfected with a double-stranded scramble RNA. The value of the ordinate represents the mean±SD of 2 repeated treatments.
(§6) The control and dsCon2 were blank transfection and scramble dsRNA transfection, respectively. The values in the ordinate represent the mean±SD of 2 repeated treatments.
as §2
(§7) After transfection, the medium was discarded and to each well 500 μl cell lysate was added and incubated at room temperature for 5 minutes. RNA was extracted with the Qiagen RNeasy kit, and after reverse transcription, qPCR analysis was performed on the ABI 7500 Fast Real-time PCR system (Applied Biosystems). Each sample was amplified in 3 replicate wells.
(§8) The PCR reaction conditions are: 95° C. for 30 seconds, 95° C. for 5 seconds, 60° C. for 30 seconds, and 40 cycles of amplification. The GAPDH gene was amplified as an internal reference at the same time. p21 was amplified with the p21F1/R1 primer pair, and the specific sequences of the amplification primers are shown in Table 1.
(§9) In order to calculate the expression value (Erel) of p21 (target gene) of a saRNA transfection sample relative to the control treatment, Formula 1 is used to input the Ct values of the target gene and the internal reference gene for calculation.
(§10) wherein, CtTm is the Ct value of the target gene from the control treatment sample; CtTs is the Ct value of the target gene from the saRNA treated sample; CtRm is the Ct value of the internal reference gene from the control treatment sample; and CtRs is the Ct value of the internal reference gene from the saRNA treated sample.
(§11) The main purpose of introducing chemical modifications to regulatory oligonucleotides of a gene is to improve their pharmaceutical properties, including enhancing in vivo stability and mitigating off-target effects (e.g., sequence-dependent targeting of unrelated genes, sequence-dependent or independent immune stimulation), while maintaining their gene regulatory capacity (gene knockdown or activation). To assess the effect of chemical modification on the RNAa activity of saRNA on the p21 gene, 10 nM unmodified (Rag1-40) and modified (Rag1-40-1 to Rag1-40-34) duplexes were transfected into Ku-7-LG and T24 cells, respectively. After 72 hours, the mRNA expression level of p21 was assessed by RT-qPCR. All duplexes induced p21 mRNA expression in all […] at least double that of the control.
(§12) In order to further evaluate the expression level of p21 mRNA after the different durations of treatment by the chemically modified saRNA duplexes, two saRNAs (RAG1-40-31 and RAG1-40-53) were randomly selected from the above chemically modified saRNA duplexes for detection. RAG1-40-31 and RAG1-40-53 were transfected into Ku-7-LG and T24 cells at a final concentration of 10 nM, for 1, 2, 3, 4, 7 and 9 days, respectively. Each treatment was set up in duplicate. […]

[5] = tested on: T24 cells; experiment: Cellular proliferation assay (CCK8) in T24 cells, alone and combined with Mitomycin C or valrubicin; type: cell-based, human; conditions: T24 cells, 10 nM, 72 hours, CCK8
Source text: as §1
T24 cells were transfected with RAG1-40-31 at concentrations of 0.1, 0.5, 1, 5, 10, 25 and 50 nM for 24 hours, and then Mitomycin C was added at concentrations of 1, 10, 100, 1000 and 10000 nM. The combined treatment was carried out with concentrations in pairs. After treatment, the cellular proliferation was detected by CCK8 kit. FIGS. 16A-16B show the relative proliferation proportion of T24 cells after the combined treatment with chemically modified saRNA RAG1-40-31 and valrubicin. […] Control and DMSO are the blank transfection control and the solvent for dilution control, respectively.
T24 cells were transfected with RAG1-40-31 at concentrations of 0.1, 0.5, 1, 5, 10, 25 and 50 nM for 24 hours, and then valrubicin at concentrations of 1, 10, 100, 1000 and 10000 nM was added. The combined treatment was carried out with concentrations in pairs. After treatment, the cellular proliferation was detected by CCK8 kit.
as §2, §3, §4

[6] = tested on: p21 gene; experiment: p21 mRNA expression by RT-qPCR in Ku-7-LG cells; type: cell-based, human; conditions: 10 nM, 72 hours, compared with unmodified Rag1-40 unless worded otherwise
Protocol: as §5, §6, §2, §7, §8, §9, §10, §11, §12

[7] = tested on: Rag1-40 target sequence in the 3′ UTR of firefly luciferase, COS-1 cells; experiment: Analysis of off-target effects (pOff-Target dual luciferase reporter in COS-1 cells); conditions: lysed 48 hours after transfection, luciferase activity
Protocol: as §13, §14, §15

Substance	off-target effect compared to unmodified Rag1-40, in words [1]	suppression of cellular proliferation, in words [2]	degradation of duplex at 96 hours [3]	RNA activation activity (p21 mRNA), in words [4]	suppression of cellular proliferation, in words [5]	RNA activation activity (p21 mRNA), in words [6]	off-target effect compared to unmodified Rag1-40, in words [7]
Rag1-40-11: saRNA duplex: sense fCfCAACUCAUUCUCCAAGfUfC (SEQ ID NO 14); antisense fUmAfCfUfUmGmGmAmGmAmAfUmGmAmGfUfUmGmGfCmA (SEQ ID NO 8) (sense fCfCrArArCrUrCrArUrUrCrUrCrCrArArGfUfC)	completely inhibited	negatively affects proliferation suppression activity	little or no signs of degradation	reduced activity	negatively affects proliferation suppression activity		
Rag1-40-16: saRNA duplex: sense fCfCAACUCAUUCUCCAAGfUfC (SEQ ID NO 14); antisense fUactfUGGAGAAfUGAGfUfUGG*fC*A (SEQ ID NO 13) (sense CCAACUCAUUCUCCAAGUC; antisense UACTUGGAGAAUGAGUUGGCA; 2'-F, DNA residues, phosphorothioate modifications; modified_base (1)..(19) (1,2,18,19)=2′-fluoro; modified_base (1)..(17) (1,2,9,13,14,17)=2′-fluoro; (1)..(21) (1,5,6,7,8,9,10,11,12,13,14,15,1,61,7,18,19,20, 21)=RNA; (2)..(4) (2,3,4)=DNA; modified_base (16)..(18) (16,17,18)=phosphorothioate (PS) backbone modification)	increased off-target effects	weakens the activity of the saRNA duplex to suppress cellular proliferation	little or no signs of degradation		weakens the activity of the saRNA duplex to suppress cellular proliferation		
Rag1-40-32: saRNA duplex: sense fCfCAACUCAUUCUCCAAG*U*C (SEQ ID NO 16); antisense fUactfUGGAGAAfUGAGfUfUGG*fC*A (SEQ ID NO 13) (sense fCfCrArArCrUrCrArUrUrCrUrCrCrArArG*rU*rC; antisense fUdAdCdTfUrGrGrArGrArAfUrGrArGfUfUrGrG*fC*rA)	increased off-target effects	weak cellular proliferation inhibitory activity; also recorded: weakens the activity of the saRNA duplex to suppress cellular proliferation	little or no signs of degradation	reduced activity; also recorded: attenuated activity	weakens the activity of the saRNA duplex to suppress cellular proliferation	attenuated activity; also recorded: weak RNA activating activity	
Rag1-40-33: saRNA duplex: sense CCAACUCAUUCUCCAAGUC (SEQ ID NO 17); antisense UactUGGAGAAUGAGUUGGCA (SEQ ID NO 18) (antisense rUdAdCdTrUrGrGrArGrArArUrGrArGrUrUrGrGrCrA; sense: unmodified RNA)		weak cellular proliferation inhibitory activity		reduced activity; also recorded: attenuated activity		attenuated activity; also recorded: weak RNA activating activity	mitigated or similar off-target effects
Rag1-40-34: saRNA duplex: sense CCAACUCAUUCUCCAAGUC (SEQ ID NO 17); antisense UacttggAGAAUGAGUUGGCA (SEQ ID NO 19) (antisense rUdAdCdTdTdGdGrArGrArArUrGrArGrUrUrGrGrCrA; sense: RNA, phosphodiester; further chemistry not fully specified)		weak cellular proliferation inhibitory activity		reduced activity; also recorded: attenuated activity		attenuated activity; also recorded: weak RNA activating activity	mitigated or similar off-target effects
